The values that follow come from patent publication US4435410A, “3-[2-(3-Alkyl and alkenyl-4-piperidyl)-ethyl]-indoles for inhibiting serotonin uptake and for releasing serotonin” (Pharmindustrie, priority 1981, dated 1984).

For data set [1], the system named is human blood platelets (uptake of serotonin). As to the kind of experiment: Inhibition of the uptake of serotonin by human blood platelets. In kind it is cell-based. Conditions: Platelet, read-out: Inhibition of serotonin uptake I50. From the text:
It is known that the uptake of serotonin by the blood platelets constitutes a good model for the uptake of this amine by the neurons (cf. J. Tuomisto, J. Pharm. Pharmac., 26. 92 (1974). When it is applied to the study of medicaments, a method which makes use of the blood platelets is very attractive from the point of view of allowing human cells to be used, thereby giving it good prospects.
The ability of products to inhibit the uptake of serotonin or to cause its release has been shown on human blood platelets according to J. L. David and Coll. "Platelets Function and Thrombosis, a Review of Methods", p. 335 (Plenum Press, London, 1972).
(1) Inhibition of the uptake of serotonin
The results are expressed by a 50% inhibiting dose or I50 which represents the dose of the product in micromoles per liter, reducing the uptake of serotonin by 50%.

For data set [2], the system named is human blood platelets (release of serotonin). As to the kind of experiment: Release of serotonin from human blood platelets. In kind it is cell-based. Conditions: Platelet, product concentration 5 × 10^-5 moles per liter, compared with controls, read-out: Percent of increased serotonin release. The procedure:
The ability of products to inhibit the uptake of serotonin or to cause its release has been shown on human blood platelets according to J. L. David and Coll. "Platelets Function and Thrombosis, a Review of Methods", p.
The action of the products on the release of serotonin is tested at a concentration of 5×10^-5 moles per liter.

Data set [3] is described as follows: Acute toxicity in male mice by oral administration. Conditions: mouse, in vivo; male mice CD1, oral, after 3 days' observation, cumulative method. The procedure: The acute toxicity of the products was determined in male mice CD1 (Charles RIVER) by oral administrations. The LD50 which was calculated after 3 days' observation, by the cumulative method of J. J. Reed and Coll. (Am. J. Hyg. 27, 493-1938) is 225 mg/kg for the compound of Example 1, and about 200 mg/kg for the compound of Example 4.

As to `C=C[C@H]1CNCC[C@H]1CCc1c[nH]c2ccccc12` [Example 1, 3-[2-(3(R)VINYL-4(R)PIPERIDYL)-ETHYL]-INDOLE], the IC50 in data set [1] was 8 nM. For the same compound, in data set [2], the activation at 50 µM was 84%. In data set [3], the LD50 (commonly the dose expected to kill half of the subjects tested) at 72 h was 225 mg/kg.

As for `CC[C@H]1CNCC[C@H]1CCc1c[nH]c2ccccc12` [Example 2, 3-{2-[3(R)ETHYL-4(R)PIPERIDYL]-ETHYL}-INDOLE], the IC50 in data set [1] was 60 nM. In data set [2], the activation at 50 µM turned out to be 75%.

Take `C=C[C@@H]1CNCC[C@H]1CCc1c[nH]c2ccccc12` [Example 4, 3-{2-[3(S)VINYL-4(R)PIPERIDYL]-ETHYL}-INDOLE]: the IC50 in data set [1] stood at 35 nM. Further, the activation at 50 µM in data set [2] was 91%. This compound yielded an LD50 at 72 h in data set [3] of approximately 200 mg/kg.
